Results as given in ChEMBL document CHEMBL3745716, “Synthesis, pharmacological assessment, molecular modeling and in silico studies of fused tricyclic coumarin derivatives as a new family of multifunctional anti-Alzheimer agents” (Eur J Med Chem, 2016).
pIC50, pKi: −log10 of the molar value. Calls of active or inactive are those of the source. The rule behind the calls is not given here.

Assays:
SK-N-SH [1] = test: Neurotoxicity against human SK-N-SH cells assessed as cell viability at 120 uM after 24 hrs by MTT assay; type: toxicity, cell-based
SK-N-SH [2] = test: Neurotoxicity against human SK-N-SH cells assessed as cell viability at 40 uM after 24 hrs by MTT assay; type: toxicity, cell-based
[3] = molecular target: Acetylcholinesterase (Electrophorus electricus) (UniProt O42275); test: Potency index, ratio of galantamine IC50 to compound IC50 for electric eel AChE
Chain of Acetylcholinesterase (Electrophorus electricus) (O42275 24-633 limits assumed): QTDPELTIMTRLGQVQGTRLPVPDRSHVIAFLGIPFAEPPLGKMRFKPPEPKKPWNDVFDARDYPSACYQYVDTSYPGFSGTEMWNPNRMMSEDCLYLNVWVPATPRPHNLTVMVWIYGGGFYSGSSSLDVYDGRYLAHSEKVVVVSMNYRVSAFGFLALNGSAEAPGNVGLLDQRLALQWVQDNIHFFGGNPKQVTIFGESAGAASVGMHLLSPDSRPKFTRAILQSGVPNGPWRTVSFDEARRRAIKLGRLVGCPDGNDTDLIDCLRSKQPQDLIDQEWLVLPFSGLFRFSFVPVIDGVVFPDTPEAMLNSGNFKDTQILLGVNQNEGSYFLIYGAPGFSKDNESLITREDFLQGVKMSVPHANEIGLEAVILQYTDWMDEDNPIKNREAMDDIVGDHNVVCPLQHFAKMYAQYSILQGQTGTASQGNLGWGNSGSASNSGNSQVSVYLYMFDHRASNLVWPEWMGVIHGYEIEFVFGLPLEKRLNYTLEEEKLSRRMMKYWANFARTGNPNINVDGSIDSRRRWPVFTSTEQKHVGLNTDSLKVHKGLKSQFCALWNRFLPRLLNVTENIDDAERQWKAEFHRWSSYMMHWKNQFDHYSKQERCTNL

Cholinesterase = Cholinesterase (Equus caballus, UniProt P81908)
Chain of Cholinesterase (P81908 whole entry): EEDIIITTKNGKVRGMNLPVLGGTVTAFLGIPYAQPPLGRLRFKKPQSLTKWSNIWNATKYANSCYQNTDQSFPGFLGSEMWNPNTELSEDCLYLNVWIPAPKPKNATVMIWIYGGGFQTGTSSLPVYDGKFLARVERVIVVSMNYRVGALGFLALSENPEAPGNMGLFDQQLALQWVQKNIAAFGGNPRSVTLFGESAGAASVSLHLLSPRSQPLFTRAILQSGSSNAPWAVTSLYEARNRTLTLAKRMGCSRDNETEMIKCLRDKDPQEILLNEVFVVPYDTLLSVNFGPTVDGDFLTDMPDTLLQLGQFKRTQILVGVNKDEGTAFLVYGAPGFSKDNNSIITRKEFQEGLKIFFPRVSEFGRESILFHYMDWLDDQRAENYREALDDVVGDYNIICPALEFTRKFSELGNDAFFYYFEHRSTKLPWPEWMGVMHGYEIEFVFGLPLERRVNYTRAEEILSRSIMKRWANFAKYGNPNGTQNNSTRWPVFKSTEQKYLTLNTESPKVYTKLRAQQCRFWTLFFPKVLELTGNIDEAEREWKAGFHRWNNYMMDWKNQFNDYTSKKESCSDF
Description: Inhibition of horse serum butyrylcholinesterase using butyrylthiocholine iodide as substrate preincubated for 5 mins followed by substrate addition measured after 5 mins by Ellman's method

Acetylcholinesterase [4] = molecular target: T1, Acetylcholinesterase (Electrophorus electricus, UniProt O42275)
T1 sequence (O42275 whole entry): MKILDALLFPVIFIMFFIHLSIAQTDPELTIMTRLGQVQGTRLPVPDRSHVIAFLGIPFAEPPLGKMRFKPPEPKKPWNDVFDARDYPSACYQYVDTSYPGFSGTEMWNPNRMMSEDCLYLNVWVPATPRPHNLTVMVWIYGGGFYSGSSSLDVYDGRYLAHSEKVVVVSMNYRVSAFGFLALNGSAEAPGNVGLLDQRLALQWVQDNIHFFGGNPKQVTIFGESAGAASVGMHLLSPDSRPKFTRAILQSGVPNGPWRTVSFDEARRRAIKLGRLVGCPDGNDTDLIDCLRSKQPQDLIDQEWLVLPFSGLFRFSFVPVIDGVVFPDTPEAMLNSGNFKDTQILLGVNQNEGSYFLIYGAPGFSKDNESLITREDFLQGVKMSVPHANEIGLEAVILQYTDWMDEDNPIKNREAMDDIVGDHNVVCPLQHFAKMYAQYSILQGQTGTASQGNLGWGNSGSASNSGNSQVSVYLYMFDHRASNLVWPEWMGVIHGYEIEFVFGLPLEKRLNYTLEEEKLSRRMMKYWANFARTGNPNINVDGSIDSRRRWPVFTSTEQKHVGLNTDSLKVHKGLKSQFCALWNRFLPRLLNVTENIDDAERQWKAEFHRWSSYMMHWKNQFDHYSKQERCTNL
Description: Inhibition of electric eel AChE using acetylthiocholine iodide as substrate preincubated for 5 mins followed by substrate addition measured after 5 mins by Ellman's method

SK-N-SH [5] = test: Neurotoxicity against human SK-N-SH cells assessed as cell viability at 80 uM after 24 hrs by MTT assay; type: toxicity, cell-based
SK-N-SH [6] = test: Neuroprotective activity against H2O2-induced cell death in human SK-N-SH cells assessed as cell viability preincubated for 3 hrs followed by H202 challenge after 24 hrs by MTT assay; type: functional, cell-based
SK-N-SH [7] = test: Neurotoxicity against human SK-N-SH cells assessed as cell viability at 160 uM after 24 hrs by MTT assay; type: toxicity, cell-based
SK-N-SH [8] = test: Neurotoxicity against human SK-N-SH cells assessed as cell viability at 200 uM after 24 hrs by MTT assay; type: toxicity, cell-based
[9] = Potency index, ratio of trolox IC50 to compound IC50 for ABTS radical scavenging activity
Mus musculus = test: In vivo inhibition of AChE in ip dosed BALB/c ByJ mouse brain assessed as hydrolysis of acetylthiocholine iodide after 48 hrs by Ellman's method; type: functional, organism-based
Acetylcholinesterase [10] = molecular target: T1, Acetylcholinesterase; test: Mixed-type inhibition of electric eel AChE using acetylthiocholine iodide as substrate assessed as enzyme-substrate complex preincubated for 5 mins followed by substrate addition measured over 6 mins by Lineweaver Burk plot analysis
Acetylcholinesterase [11] = molecular target: T1, Acetylcholinesterase; test: Mixed-type inhibition of electric eel AChE using acetylthiocholine iodide as substrate assessed as free enzyme preincubated for 5 mins followed by substrate addition measured over 6 mins by Lineweaver Burk plot analysis

Compound | pIC50 | Activity (SK-N-SH [1]) | Activity (SK-N-SH [2]) | Ratio IC50 [3] | pIC50 (Cholinesterase) | pIC50 (Acetylcholinesterase [4]) | Activity (SK-N-SH [5]) | Activity (SK-N-SH [6]) | Activity (SK-N-SH [7]) | Activity (SK-N-SH [8]) | Ratio IC50 [9] | inhibition (Mus musculus) | pKi (Acetylcholinesterase [10]) | pKi (Acetylcholinesterase [11])
Cc1c(C)c2c(c(C)c1O)CCC(C)(C(=O)O)O2 (stereo unspecified) [TROLOX] | 4.56 |  |  |  |  |  |  |  |  |  |  |  |  | 
Cc1cc(=O)oc2c1ccc1oc(=N)c(C(=O)NCc3cccc(Cl)c3)cc12 | 4.99 | Non-toxic | Non-toxic | 2 | < 4.00 | 7.72 | Non-toxic | Dose-dependent effect | Non-toxic | Non-toxic | 1.7 |  |  | 
Cc1cc(=O)oc2c1ccc1oc(=N)c(C(=O)NC(C)c3ccccc3)cc12 (stereo unspecified) | 4.85 |  |  | 2 | 4.45 | 6.61 |  |  |  |  | 1.7 |  |  | 
Cc1cc(=O)oc2c1ccc1oc(=N)c(C(=O)N3CCOCC3)cc12 | 4.95 |  |  | 2 |  | 6.94 |  |  |  |  | 1.7 |  |  | 
Cc1cc(=O)oc2c1ccc1oc(=N)c(C(=O)NC3CCCCC3)cc12 | < 4.30 |  |  | 2 | 4.38 | 7.57 |  |  |  |  |  |  |  | 
Cc1cc(=O)oc2c1ccc1oc(=N)c(C(=O)NCc3ccccc3)cc12 | < 4.30 |  |  | 2 | < 4.00 | 5.67 |  |  |  |  |  |  |  | 
Cc1cc(=O)oc2c1ccc1oc(=N)c(C(=O)N3CCCC3)cc12 | < 4.30 |  |  | 2 | 4.14 | 6.01 |  |  |  |  |  |  |  | 
Cc1cc(=O)oc2c1ccc1oc(=N)c(C(=O)NCc3ccccc3Br)cc12 | 4.92 | Non-toxic | Non-toxic | 2 | < 4.00 | 7.80 | Non-toxic | Dose-dependent effect | Non-toxic | Non-toxic | 1.7 |  |  | 
Cc1cc(=O)oc2c1ccc1oc(=N)c(C(=O)NCc3ccc(C(C)(C)C)cc3)cc12 | 4.87 | Toxic | Toxic | 2 | 4.24 | 8.00 | Toxic | Dose-dependent effect | Toxic | Toxic | 1.7 |  |  | 
COc1ccccc1OCCNC(=O)c1cc2c(ccc3c(C)cc(=O)oc32)oc1=N | 4.89 |  |  |  | 4.61 | 5.59 |  |  |  |  |  |  |  | 
CNC(=O)c1cc2c(ccc3c(C)cc(=O)oc32)oc1=N | 4.47 |  |  |  | < 4.00 | 5.85 |  |  |  |  |  |  |  | 
CCCCCCCCCCCCNC(=O)c1cc2c(ccc3c(C)cc(=O)oc32)oc1=N | < 4.30 |  |  | 2 | < 4.00 | 7.66 |  |  |  |  |  |  |  | 
Cc1cc(=O)oc2c1ccc1oc(=N)c(C(=O)NCc3ccccc3Cl)cc12 | 4.80 | Non-toxic | Non-toxic | 2 | < 4.00 | 7.92 | Non-toxic | Dose-dependent effect | Non-toxic | Non-toxic | 1.7 |  |  | 
Cc1cc(=O)oc2c1ccc1oc(=N)c(C(=O)NC3CC3)cc12 | < 4.30 |  |  |  | 4.41 | 6.04 |  |  |  |  |  |  |  | 
Cc1cc(=O)oc2c1ccc1oc(=N)c(C(=O)NCc3cccc(Br)c3)cc12 | 5.10 | Toxic | Toxic | 2 | < 4.00 | 8.52 | Toxic | Dose-dependent effect | Toxic | Toxic | 1.7 | Active | 7.71 | 7.99
COc1ccc(C(C)NC(=O)c2cc3c(ccc4c(C)cc(=O)oc43)oc2=N)cc1 (stereo unspecified) | 5.04 |  |  |  |  | 5.72 |  |  |  |  | 1.7 |  |  | 
COc1ccc(CNC(=O)c2cc3c(ccc4c(C)cc(=O)oc43)oc2=N)c(OC)c1 | < 4.30 |  |  | 2 | < 4.00 | 6.45 |  |  |  |  |  |  |  | 
Cc1cc(=O)oc2c1ccc1oc(=N)c(C(=O)NC(c3ccccc3)c3ccccc3)cc12 | < 4.30 |  |  | 2 |  | 7.05 |  |  |  |  |  |  |  | 
CCNC(=O)c1cc2c(ccc3c(C)cc(=O)oc32)oc1=N | < 4.30 |  |  | 2 | 4.95 | 6.53 |  |  |  |  |  |  |  | 
Cc1cc(=O)oc2c1ccc1oc(=N)c(C(=O)Nc3ccccc3[N+](=O)[O-])cc12 | < 4.30 |  |  | 2 | < 4.00 | 6.65 |  |  |  |  |  |  |  | 
